The target in the experiment is T1, human TSHR (Homo sapiens, UniProt P16473).
T1 construct: expressed in transfected cells
T1 sequence (P16473 21-764): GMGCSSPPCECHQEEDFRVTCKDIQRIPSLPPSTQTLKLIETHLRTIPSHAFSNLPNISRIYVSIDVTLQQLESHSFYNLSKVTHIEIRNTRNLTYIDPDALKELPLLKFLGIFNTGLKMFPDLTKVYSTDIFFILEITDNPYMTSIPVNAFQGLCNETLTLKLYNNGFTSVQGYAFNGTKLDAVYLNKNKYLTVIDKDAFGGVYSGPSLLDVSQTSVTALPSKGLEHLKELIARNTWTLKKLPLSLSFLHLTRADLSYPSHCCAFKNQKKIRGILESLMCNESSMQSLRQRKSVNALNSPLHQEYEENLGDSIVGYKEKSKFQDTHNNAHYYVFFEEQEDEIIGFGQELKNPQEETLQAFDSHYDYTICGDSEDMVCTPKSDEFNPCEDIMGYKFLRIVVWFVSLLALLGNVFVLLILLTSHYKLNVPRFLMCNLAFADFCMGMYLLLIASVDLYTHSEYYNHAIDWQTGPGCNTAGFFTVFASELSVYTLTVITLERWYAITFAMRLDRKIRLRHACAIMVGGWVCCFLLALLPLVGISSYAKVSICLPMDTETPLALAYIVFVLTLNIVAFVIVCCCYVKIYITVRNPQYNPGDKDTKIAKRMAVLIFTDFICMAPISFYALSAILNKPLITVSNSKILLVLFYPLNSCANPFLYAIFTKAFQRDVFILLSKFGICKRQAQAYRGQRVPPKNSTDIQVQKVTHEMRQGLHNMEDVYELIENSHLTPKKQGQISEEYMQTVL
Put plainly: Measurement of antagonist activity using TSH-induced cAMP production in human TSHR-stably expressing CHO cells. The note with it: human TSH final concentration 50 ng/mL. Type of experiment: cell-based. As to the method: Measurement of Antagonist Activity Using TSH-induced cAMP Production in Human TSHR-stably Expressing CHO Cells as an Indicator
A gene sequence of human TSHR (reference number NM_000369.2) was inserted into a multiple cloning site of pcDNA3.1(+). The prepared plasmid vector was introduced into CHO cells by a lipofection method to establish human TSHR stably expressing CHO cells. The obtained cells were seeded in a poly-D-lysine-coated 96-well plate at 5 x 10^4 cells/well, and cultured for 1 day in F12 medium containing 10% FBS, 400 µg/mL G418, 50 U/mL penicillin, and 50 µg/mL streptomycin under conditions of 37°C and 5% CO2. After removing a medium, the cells were washed twice with 100 µL per well of an assay buffer (Hanks' Balanced Salt Solution containing 20 mM HEPES and 1 mM IBMX). 30 µL of an assay buffer containing a test compound was added to a well, and the mixture was incubated at room temperature for 15 minutes. Next, 30 µL of an assay buffer containing human TSH (R&D Systems, Inc., final concentration 50 ng/mL) was added, and the mixture was incubated at 37°C for 1 hour. The supernatant was removed, and Lysis and Detection Buffer 2 (Cisbio) was added to prepare a cell lysate by incubating at room temperature for 1 hour. According to the instructions for use of a cAMP Gs HiRange kit (Cisbio), a cell lysate was reacted with d2-labeled cAMP and an anti-cAMP Europium Cryptate labeled antibody (Cisbio) in a 384-well white microplate. Next, a fluorescence intensity ratio (measurement wavelengths 665 nm/620 nm) was measured using a multiplate reader (PHERAstar FSX, BMG LABTECH Japan). A fluorescence intensity ratio of each sample was converted into a cAMP content using a standard curve. A cAMP content was converted into a percentage of a control value, and a cAMP production rate was calculated. Using Prism (Graph Pad Software Inc.), a cAMP production rate was plotted against a test compound concentration, and an IC50 value was calculated. The IC50 of each test compound is shown in the above tables. In the tables, IC50 < 3.0 µM was denoted as A, and 3.0 µM ≤ IC50 < 30 µM was denoted as B. The case where activity was observed but an IC50 value could not be calculated was denoted as C.
A general note: Cyclic AMP is a second messenger, typically raised through Gs and lowered through Gi signalling.
One may read the IC50 as the concentration at which inhibition is half-maximal. In the case of `NC(=O)N[C@@H]1Cc2ccccc2N(Cc2cc(C(F)F)ccc2F)C1=O` [Example C-4, (R)-1-(1-(5-(difluoromethyl)-2-fluorobenzyl)-2-oxo-1,2,3,4-tetrahydroquinolin-3-yl)urea], the half-maximal inhibitory concentration (IC50) is under 3 µM.
For `NC(=O)N[C@@H]1Cc2c(F)cccc2N(Cc2cc(C(F)(F)F)ccc2F)C1=O` [Example C-9, (R)-1-(5-fluoro-1-(2-fluoro-5-(trifluoromethyl)benzyl)-2-oxo-1,2,3,4-tetrahydroquinolin-3-yl)urea] the value was under 3 µM.
`C=CCc1ccc(F)c(CN2C(=O)[C@H](NC(N)=O)CC[C@H]2C(F)(F)F)c1` [Example D-1, 1-((3R,6S)-1-(5-allyl-2-fluorobenzyl)-2-oxo-6-(trifluoromethyl)piperidin-3-yl)urea] returned an IC50 of under 3 µM.
As to `CC(C)(C)OC(=O)Nc1ccc2c(c1)OC(CC(N)=O)C(=O)N2Cc1cc(C(F)(F)F)ccc1F` (stereo not drawn) [Example F-8, tert-butyl (2-(2-amino-2-oxoethyl)-4-(2-fluoro-5-(trifluoromethyl)benzyl)-3-oxo-3,4-dihydro-2H-benzo[b][1,4]oxazin-7-yl)carbamate], the IC50 was under 3 µM.
Regarding `COc1cccc(CN2C(=O)[C@H](NC(N)=O)Cc3ccccc32)c1` [Example C-3, (R)-1-(1-(3-methoxybenzyl)-2-oxo-1,2,3,4-tetrahydroquinolin-3-yl)urea], the IC50 was over 30 µM.
The compound `NC(=O)N[C@@H]1CC[C@@H](CO)N(Cc2cc(C(F)(F)F)ccc2F)C1=O` [Example D-4, 1-((3R,6S)-1-(2-fluoro-5-(trifluoromethyl)benzyl)-6-(hydroxymethyl)-2-oxopiperidin-3-yl)urea] had a concentration for half-maximal inhibition (IC50) of 3 to 30 µM.
For `NC(=O)N[C@@H]1Cc2ccc(C(F)F)cc2N(Cc2cc(S(F)(F)(F)(F)F)ccc2F)C1=O` [Example C-19, (R)-1-(7-(difluoromethyl)-1-(2-fluoro-5-(pentafluorosulfanyl)benzyl)-2-oxo-1,2,3,4-tetrahydroquinolin-3-yl)urea] the value was under 3 µM; for `NC(=O)N[C@@H]1Cc2ccccc2N(Cc2cccc3c2OC(F)(F)O3)C1=O` [Example C-5, (R)-1-(1-((2,2-difluorobenzo[d][1,3]dioxol-4-yl)methyl)-2-oxo-1,2,3,4-tetrahydroquinolin-3-yl)urea], under 3 µM; for `NC(=O)Nc1cc(C(F)(F)F)cn(Cc2cc(C(F)(F)F)ccc2F)c1=O` [Example B-6, 1-(1-(2-fluoro-5-(trifluoromethyl)benzyl)-2-oxo-5-(trifluoromethyl)-1,2-dihydropyridin-3-yl)urea], under 3 µM.
As for `NC(=O)N[C@@H]1CC[C@@H]2CC[C@@H](Cc3ccccc3C(F)(F)F)N2C1=O` [Example D-3, 1-((3S,6R,8aR)-5-oxo-3-(2-(trifluoromethyl)benzyl)octahydroindolizin-6-yl)urea], the figure is 3 to 30 µM; as for `NC(=O)N[C@@H]1Cc2ccc(C(F)F)cc2N(Cc2cc(C(F)F)ccc2F)C1=O` [Example C-14, (R)-1-(7-(difluoromethyl)-1-(5-(difluoromethyl)-2-fluorobenzyl)-2-oxo-1,2,3,4-tetrahydroquinolin-3-yl)urea], under 3 µM.
With `NC(=O)N[C@@H]1Cc2ccc(C(F)F)cc2N(Cc2cc(C(F)(F)F)ccc2CO)C1=O` [Example F-1, (R)-1-(7-(difluoromethyl)-1-(2-(hydroxymethyl)-5-(trifluoromethyl)benzyl)-2-oxo-1,2,3,4-tetrahydroquinolin-3-yl)urea], the IC50 lay within 3 to 30 µM.
Compound `Cc1ccc(NC(N)=O)c(=O)n1Cc1cc(C(F)(F)F)ccc1F` [Example B-4, 1-(1-(2-fluoro-5-(trifluoromethyl)benzyl)-6-methyl-2-oxo-1,2-dihydropyridin-3-yl)urea] came in with an IC50 of under 3 µM.
Compound `NC(=O)N[C@@H]1C[C@H](F)CN(Cc2cc(C(F)(F)F)ccc2F)C1=O` [Example A-18, 1-((3R,5S)-5-fluoro-1-(2-fluoro-5-(trifluoromethyl)benzyl)-2-oxopiperidin-3-yl)urea] registered an IC50 of over 30 µM.
`NC(=O)N[C@@H]1CC[C@@H](C(F)(F)F)N(Cc2cc(C(F)F)ccc2F)C1=O` [Example A-15, 1-((3R,6S)-1-(5-(difluoromethyl)-2-fluorobenzyl)-2-oxo-6-(trifluoromethyl)piperidin-3-yl)urea] came in with an IC50 of under 3 µM.
In turn, `COc1ccc2c(c1)N(Cc1cccc(C(F)(F)F)c1)C(=O)[C@H](NC(N)=O)C2` [Example C-7, (R)-1-(7-methoxy-2-oxo-1-(3-(trifluoromethyl)benzyl)-1,2,3,4-tetrahydroquinolin-3-yl)urea] displayed an IC50 of under 3 µM.
As for `NC(=O)N[C@@H]1Cc2sccc2N(Cc2cc(C(F)(F)F)ccc2F)C1=O` [Example F-5, (R)-1-(4-(2-fluoro-5-(trifluoromethyl)benzyl)-5-oxo-4,5,6,7-tetrahydrothieno[3,2-b]pyridin-6-yl)urea], the figure is under 3 µM; as for `NC(=O)N[C@@H]1C[C@@H]2CCCC[C@H]2N(Cc2cccc(C(F)(F)F)c2)C1=O` (relative stereo) [Example A-29, 1-((3R^*,4aS^*,8aR^*)-(2-oxo-1-(3-(trifluoromethyl)benzyl)decahydroquinolin-3-yl)urea], over 30 µM; as for `C[C@@H]1CC[C@@H](NC(N)=O)C(=O)N1Cc1cc(CCc2ccccc2)ccc1F` (relative stereo) [Example A-12, 1-((3R^*,6R^*)-1-(2-fluoro-5-phenethylbenzyl)-6-methyl-2-oxopiperidin-3-yl)urea], under 3 µM.
In turn, `CNC(=O)Nc1ccc(C)n(Cc2cc(C(F)(F)F)cc(Cl)c2F)c1=O` [Example B-10, 1-(1-(3-chloro-2-fluoro-5-(trifluoromethyl)benzyl)-6-methyl-2-oxo-1,2-dihydropyridin-3-yl)-3-methylurea] returned an IC50 of under 3 µM.
`CN(C)C(=O)C[C@@H]1CC[C@@H](NC(N)=O)C(=O)N1Cc1cc(C(F)(F)F)ccc1F` (relative stereo) [Example D-10, 2-((2S^*,5R^*)-1-(2-fluoro-5-(trifluoromethyl)benzyl)-6-oxo-5-ureidopiperidin-2-yl)-N,N-dimethylacetamide]: the IC50 is over 30 µM.
Turning to `Cc1nc2c(s1)N(Cc1cc(C(F)(F)F)ccc1F)C(=O)[C@H](NC(N)=O)C2` [Example F-6, (R)-1-(4-(2-fluoro-5-(trifluoromethyl)benzyl)-2-methyl-5-oxo-4,5,6,7-tetrahydrothiazolo[5,4-b]pyridin-6-yl)urea], the IC50 fell in the range of 3 to 30 µM.
With `Cc1ccc(NC(=O)C(F)(F)F)c(=O)n1Cc1cc(C(F)(F)F)cc(Cl)c1F` [Example E-8, N-(1-(3-chloro-2-fluoro-5-(trifluoromethyl)benzyl)-6-methyl-2-oxo-1,2-dihydropyridin-3-yl)-2,2,2-trifluoroacetamide], the IC50 lay within 3 to 30 µM.
In turn, `NC(=O)N[C@@H]1Cc2ccc(Cl)cc2N(Cc2cc(C(F)F)ccc2F)C1=O` [Example C-12, (R)-1-(7-chloro-1-(5-(difluoromethyl)-2-fluorobenzyl)-2-oxo-1,2,3,4-tetrahydroquinolin-3-yl)urea] gave an IC50 of under 3 µM.
The compound `NC(=O)N[C@@H]1CC[C@@H](C(F)F)N(Cc2cc(C(F)(F)F)ccc2F)C1=O` [Example A-17, 1-((3R,6S)-6-(difluoromethyl)-1-(2-fluoro-5-(trifluoromethyl)benzyl)-2-oxopiperidin-3-yl)urea] had a 50% inhibitory concentration (IC50) of under 3 µM.
As to `C[C@@H]1CC[C@@H](NC(N)=O)C(=O)N1Cc1cc(C#Cc2cccnc2)ccc1F` (relative stereo) [Example A-9, 1-((3R^*,6R^*)-1-(2-fluoro-5-(pyridin-3-ylethynyl)benzyl)-6-methyl-2-oxopiperidin-3-yl)urea], the IC50 was under 3 µM.
For `NC(=O)N[C@@H]1Cc2ccc(F)cc2N(Cc2cc(C(F)(F)F)cc(Cl)c2F)C1=O` [Example C-21, (R)-1-(1-(3-chloro-2-fluoro-5-(trifluoromethyl)benzyl)-7-fluoro-2-oxo-1,2,3,4-tetrahydroquinolin-3-yl)urea], the IC50 is under 3 µM.
As for `NC(=O)N[C@@H]1Cc2ccncc2N(Cc2cccc(C(F)(F)F)c2)C1=O` [Example C-23, (R)-1-(2-oxo-1-(3-(trifluoromethyl)benzyl)-1,2,3,4-tetrahydro-1,7-naphthyridin-3-yl)urea], the figure is 3 to 30 µM; as for `NC(=O)N[C@@H]1Cc2ccccc2N(CCc2ccccc2)C1=O` [Example C-25, (R)-1-(2-oxo-1-phenethyl-1,2,3,4-tetrahydroquinolin-3-yl)urea], 3 to 30 µM; as for `CC(C)(C)NC(=O)Nc1ccc2c(c1)nc(NC(N)=O)c(=O)n2Cc1cc(C(F)(F)F)ccc1F` [Example F-9, 1-(tert-butyl)-3-(1-(2-fluoro-5-(trifluoromethyl)benzyl)-2-oxo-3-ureido-1,2-dihydroquinoxalin-6-yl)urea], under 3 µM.
